Reference: paper PMC8669121 (Epigenetics Insights, 2021)

Molecular target: T1, HDAC8 (histone deacetylase 8) (Homo sapiens, UniProt Q9BY41)
T1 sequence (Q9BY41 1-377): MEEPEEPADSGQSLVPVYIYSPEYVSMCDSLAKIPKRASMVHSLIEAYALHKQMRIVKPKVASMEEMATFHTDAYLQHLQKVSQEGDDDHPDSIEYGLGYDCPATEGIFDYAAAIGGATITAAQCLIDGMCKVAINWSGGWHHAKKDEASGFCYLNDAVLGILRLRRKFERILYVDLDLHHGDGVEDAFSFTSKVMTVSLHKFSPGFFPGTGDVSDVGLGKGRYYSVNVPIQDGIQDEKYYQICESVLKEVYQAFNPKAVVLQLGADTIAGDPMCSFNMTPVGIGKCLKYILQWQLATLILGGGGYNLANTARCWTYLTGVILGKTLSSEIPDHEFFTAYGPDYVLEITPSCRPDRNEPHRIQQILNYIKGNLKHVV
Experiment: Fluor de Lys fluorogenic deacetylase inhibition assay with AcRHKK
Assay type: biochemical

Row | Ki | SMILES
1 | 4.48 ± 0.221 mM | CCCCCCCCCC(=O)O [Decanoic acid]
2 | 2.35 ± 0.341 mM | CCCCCC(=O)O [Hexanoic acid]
